Key:
[1] = Conductometry: molar conductivity of silver complexes in DMSO; format: physicochemical; conditions: 1.0 mM in DMSO, calculated as monocarbene (NHC)AgX
Protocol: Since both the neutral monocarbene and the ionic biscarbene form of the complexes may exist in various proportions in the solution, conductometry studies were performed to reveal the dominant structure. The molar conductivity of 1.0 mM solutions of each complex in DMSO was determined after different periods up to 24 h using AgNO3 as 1:1 electrolyte reference (see Table 1). According to the literature, the expected range of molar conductivity for 1:1 electrolytes in DMSO is 35–90 S cm^2 mol^–1.[45],[46]
Conductivity measurements were performed using an Apera Instruments EC9500 conductivity meter. Solutions (as indicated, otherwise 1.0 mM) of all compounds were prepared using freshly distilled DMSO with a specific electrical conductivity of ≤3 × 10^–8 S cm^–1. The conductivities were measured at 25 ± 2 °C immediately after complete dissolution and after 24 h.

[2] = test system: K. pneumoniae (DSM 11678, ATCC33495); experiment: Broth microdilution antibacterial assay; format: cell-based, Klebsiella pneumoniae; conditions: n = 3, MHB; for MIC K. pneumoniae / EC50: mean ± standard error; for MIC K. pneumoniae / MIC K. pneumoniae (value in brackets): 22 h; for EC50: read-out: EC50 K. pneumoniae
Protocol: (§1) The antibacterial effect of the silver NHC complexes and selected ligands was evaluated in two Gram-positive [Enterococcus faecium, methicillin resistant S. aureus, (MRSA)] and in four Gram-negative (Acinetobacter baumannii, Escherichia coli, Klebsiella pneumoniae, and Pseudomonas aeruginosa) pathogenic bacterial strains using broth microdilution assays. The resulting minimal inhibitory concentrations (MICs, Table 2) and EC50 (Table S6) were determined by a curve fitting procedure. Silver nitrate (AgNO3), SSD, and various antibiotics were used as references.
(§2) The following strains of ESKAPE panel were utilized and maintained at 37 °C in MHB (21 g/L Müller Hinton broth, pH 7.4) or TSY (30 g/L trypticase soy broth, 3 g/L yeast extract, pH 7.0–7.2) media: A. baumannii (DSM 30007, ATCC 19606), E. coli (DSM1116, ATCC 9637), K. pneumoniae (DSM 11678, ATCC33495), P. aeruginosa PA7 (DSM 24068) in MHB; E. faecium (DSM 20477, ATCC 19434), and S. aureus MRSA (DSM 11822, ICB 25701) in TSY. MIC values were determined following a standardized protocol in broth microdilution assays. The compounds and reference substances (AgNO3 and SSD) were serially diluted from 64 to 1 μg/mL. Starting inocula of 2–8 × 10^5 CFU/mL in MHB or TSY media at 37 °C were used, and serial dilutions were carried out in 96-well microtiter plates in duplicate. After incubation of the plates for 22 h at 37 °C, the absorbance at 600 nm was measured using The Spark multimode microplate reader (Tecan Trading AG). The MIC values for the tested compounds were determined in three independent experiments and presented in μM with standard errors and also in μg/mL. Amikacin (P. aeruginosa), linezolid (S. aureus), and ciprofloxacin (all other strains) served as positive controls. The MIC and EC50 values were determined by curve fitting with Sigma Plot. To determine the effect of the culture medium on the activity of silver compounds, the assay was performed using MHB, TSY, or DMEM (Gibco). To observe the effect of individual components of TSY medium, antibacterial tests were performed using MHB with addition of tryptone (17 g/L) or yeast extract (3 g/L, both were purchased from Sigma).

[3] = test system: E. faecium (DSM 20477, ATCC 19434); experiment: Broth microdilution antibacterial assay; format: cell-based, Enterococcus faecium; conditions: n = 3, TSY; for MIC E. faecium / EC50: mean ± standard error; for MIC E. faecium / MIC E. faecium (value in brackets): 22 h; for EC50: read-out: EC50 E. faecium
Protocol: as §1, §2

[4] = test system: A. baumannii (DSM 30007, ATCC 19606); experiment: Broth microdilution antibacterial assay; format: cell-based, Acinetobacter baumannii; conditions: n = 3, MHB; for MIC A. baumannii / EC50: mean ± standard error; for MIC A. baumannii / MIC A. baumannii (value in brackets): 22 h; for EC50: read-out: EC50 A. baumannii
Protocol: as §1, §2

[5] = test system: S. aureus MRSA (DSM 11822, ICB 25701); experiment: microbe, parasite or virus in culture; format: cell-based, methicillin resistant S. aureus; conditions: n = 3, TSY; for MIC MRSA / EC50: mean ± standard error; for MIC MRSA / MIC MRSA (value in brackets): 22 h; for EC50: read-out: EC50 MRSA
Protocol: as §1
The importance of the culture medium used in antibacterial assays has been pointed out for antibiotics and in particular for silver.[53]−[55] In our recent studies, tryptic soy yeast (TSY) broth has been used for growing Gram-positive bacteria. Two components thereof, tryptone and yeast extract, have been reported to affect the antibacterial activity of silver nitrate.[55] Moreover, such an effect was also observed for other media containing at least one of those components.[11],[53] […] Silver nitrate served as a reference, and three different growth media were studied, namely, Müller-Hinton Broth (MHB, commonly used for Gram-negative bacteria), TSY broth (commonly used for Gram-positive bacteria), and DMEM supplemented with 10% FCS (commonly used for growth of mammalian and human cells).
as §2

[6] = test system: E. coli (DSM1116, ATCC 9637); experiment: microbe, parasite or virus in culture; format: cell-based, Escherichia coli; conditions: n = 3, MHB; for EC50 / MIC E. coli: mean ± standard error; for MIC E. coli / MIC E. coli (value in brackets): 22 h
Protocol: as §1, §2

[7] = test system: P. aeruginosa PA7 (DSM 24068); experiment: microbe, parasite or virus in culture; format: cell-based, Pseudomonas aeruginosa; conditions: n = 3, MHB; for MIC P. aeruginosa / EC50: mean ± standard error; for MIC P. aeruginosa / MIC P. aeruginosa (value in brackets): 22 h; for EC50: read-out: EC50 P. aeruginosa
Protocol: as §1, §2

Row | Compound | Molar conductivity ΛM ([1]; 1 h after dissolution) [S cm^2 mol^–^1] | Molar conductivity ΛM ([1]; 24 h after dissolution) [S cm^2 mol^–^1] | MIC K. pneumoniae [2] [µM] | EC50 [2] [µM] | MIC K. pneumoniae (value in brackets) [2] [µg/mL] | MIC E. faecium [3] [µM] | EC50 [3] [µM] | MIC E. faecium (value in brackets) [3] [µg/mL] | MIC A. baumannii [4] [µM] | EC50 [4] [µM] | MIC A. baumannii (value in brackets) [4] [µg/mL] | MIC MRSA [5] [µM] | EC50 [5] [µM] | MIC MRSA (value in brackets) [5] [µg/mL] | EC50 [6] [µM] | MIC E. coli [6] [µM] | MIC E. coli (value in brackets) [6] [µg/mL] | MIC P. aeruginosa [7] [µM] | EC50 [7] [µM] | MIC P. aeruginosa (value in brackets) [7] [µg/mL]
1 | CCn1[c](=[Ag][Cl])n(Cc2ccccn2)c2ccccc21 [2a, Chlorido (1-Ethyl-3-(pyridin-2-ylmethyl)-benzimidazol-2-ylidene) Silver(I)] | 3.47 | 3.03 | 17.5 ± 3.5 | 12 ± 0.9 | 7 | 168 ± 0.0 | 132 ± 6.8 | 64 | 10.5 ± 0.0 | 2.4 ± 0.1 | 4 | 168 ± 0.0 | 98.5 ± 0.8 | 64 | 33.3 ± 4.7 | 56.0 ± 14.0 | 21 | 10.5 ± 0.0 | 6.4 ± 0.5 | 4
2 | [Br][Ag]=[c]1n(Cc2ccccc2)c2ccccc2n1Cc1ccccn1 [5b, Bromido (1-(Pyridin-2-ylmethyl)-3-benzyl-benzimidazol-2-ylidene) Silver(I)] | 6.58 | 5.68 | 16.4 ± 0.0 | 9.5 ± 0.3 | 8 | 131 ± 0.0 | 111 ± 0.2 | 64 | 16.4 ± 0.0 | 0.72 ± 0.15 | 8 | 131 ± 0.0 | 75.5 ± 1.4 | 64 | 27.1 ± 1.2 | 32.8 ± 0.0 | 16 | 65.7 ± 0.0 | 28.2 ± 2.7 | 32
3 | Cn1[c](=[Ag][Br])n(Cc2ccccn2)c2ccccc21 [1b, Bromido (1-Methyl-3-(pyridin-2-ylmethyl)-benzimidazol-2-ylidene) Silver(I)] | 4.75 | 4.82 | 16.2 ± 3.2 | 10 ± 2.2 | 7 | 156 ± 0.0 | 129 ± 2.8 | 64 | 16.2 ± 3.2 | 2.6 ± 0.3 | 7 | 156 ± 0.0 | 134 ± 14 | 64 | 71.3 ± 6.7 | 103 ± 25 | 43 | 25.9 ± 6.5 | 10.9 ± 3.9 | 11
4 | Cn1[c]([Ag][Cl])[n+](Cc2ccccn2)c2ccccc21 [1a] | 2.88 | 3.05 | 18.2 ± 3.6 | 8.5 ± 1.2 | 7 | 175 ± 0.0 | 145 ± 2.3 | 64 | 14.6 ± 3.6 | 1.7 ± 0.4 | 5 | 175 ± 0.0 | 146 ± 2.8 | 64 | 53.3 ± 8.6 | 116 ± 29 | 43 | 10.9 ± 0.0 | 5.7 ± 0.8 | 4
5 | CCn1[c](=[Ag][Br])n(Cc2ccccn2)c2ccccc21 [2b, Bromido (1-Ethyl-3-(pyridin-2-ylmethyl)-benzimidazol-2-ylidene) Silver(I)] | 5.47 | 5.07 | 15.7 ± 3.1 | 9 ± 1 | 7 | 151 ± 0.0 | 128 ± 0.9 | 64 | 12.5 ± 3.1 | 2.2 ± 0.3 | 5 | 151 ± 0.0 | 88.5 ± 1.6 | 64 | 35.6 ± 9.4 | 50.2 ± 12.5 | 21 | 9.4 ± 0.0 | 6.9 ± 0.5 | 4
6 | [Br][Ag][c]1n(Cc2ccccn2)c2ccccc2[n+]1Cc1ccccn1 [6b] | 6.13 | 6.50 | 13.7 ± 0.0 | 6.4 ± 0.2 | 7 | 132 ± 0.0 | 105 ± 0.1 | 64 | 8.2 ± 0.0 | 0.47 ± 0.02 | 4 | 132 ± 0.0 | 90.7 ± 4.5 | 64 | 14.6 ± 1 | 21.9 ± 5.5 | 10 | 27.3 ± 5.5 | 13.5 ± 3.7 | 13

Reference: publication PMC11091889, “Silver Organometallics that are Highly Potent Thioredoxin and Glutathione Reductase Inhibitors: Exploring the Correlations of Solution Chemistry with the Strong Antibacterial Effects” (ACS Infectious Diseases, 2024)
